Experimental data as given in ChEMBL document CHEMBL5291721, “A preclinical secondary pharmacology resource illuminates target-adverse drug reaction associations of marketed drugs” (Nat Commun, 2023).

How the values were obtained:
[1] = biological target: Gamma-aminobutyric acid receptor subunit alpha-1 (Rattus norvegicus, UniProt P62813)
[2] = biological target: Beta-3 adrenergic receptor (Homo sapiens, UniProt P13945)
Glucagon receptor = Glucagon receptor (Homo sapiens, UniProt P47871)
[3] = biological target: T1, 5-hydroxytryptamine receptor 1A (Homo sapiens, UniProt P08908)
T1 sequence (P08908 whole entry): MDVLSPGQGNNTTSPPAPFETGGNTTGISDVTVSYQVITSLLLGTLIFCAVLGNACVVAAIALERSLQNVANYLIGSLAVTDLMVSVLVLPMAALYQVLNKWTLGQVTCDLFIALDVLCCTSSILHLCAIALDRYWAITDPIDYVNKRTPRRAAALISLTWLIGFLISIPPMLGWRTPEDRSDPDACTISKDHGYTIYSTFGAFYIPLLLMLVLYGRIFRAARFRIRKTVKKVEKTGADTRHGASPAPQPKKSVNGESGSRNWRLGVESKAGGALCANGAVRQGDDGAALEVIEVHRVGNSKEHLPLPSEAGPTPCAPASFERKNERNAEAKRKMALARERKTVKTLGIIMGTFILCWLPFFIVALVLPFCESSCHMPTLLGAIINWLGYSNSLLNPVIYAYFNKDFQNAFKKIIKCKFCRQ

[4] = biological target: Gamma-aminobutyric acid receptor subunit alpha-1/alpha-2/beta-2/gamma-2 (Homo sapiens, UniProt P14867+P18507+P47869+P47870); format: functional, cell-based
Gamma-aminobutyric acid receptor subunit alpha-1/alpha-2/beta-2/gamma-2, sequence (P14867 whole entry): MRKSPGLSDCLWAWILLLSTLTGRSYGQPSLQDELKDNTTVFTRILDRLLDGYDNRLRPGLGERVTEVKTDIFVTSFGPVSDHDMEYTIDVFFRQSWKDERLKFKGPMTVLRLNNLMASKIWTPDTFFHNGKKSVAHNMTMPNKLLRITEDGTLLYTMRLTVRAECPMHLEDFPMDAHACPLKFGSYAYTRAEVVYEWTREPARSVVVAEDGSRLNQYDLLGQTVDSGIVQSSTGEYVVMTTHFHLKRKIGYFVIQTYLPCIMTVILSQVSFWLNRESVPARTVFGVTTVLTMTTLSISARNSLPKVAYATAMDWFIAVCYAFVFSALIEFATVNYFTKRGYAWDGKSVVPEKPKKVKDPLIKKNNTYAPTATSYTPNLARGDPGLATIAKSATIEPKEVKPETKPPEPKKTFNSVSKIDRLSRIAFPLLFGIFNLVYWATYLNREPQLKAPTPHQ
Gamma-aminobutyric acid receptor subunit alpha-1/alpha-2/beta-2/gamma-2, sequence (P47870 whole entry): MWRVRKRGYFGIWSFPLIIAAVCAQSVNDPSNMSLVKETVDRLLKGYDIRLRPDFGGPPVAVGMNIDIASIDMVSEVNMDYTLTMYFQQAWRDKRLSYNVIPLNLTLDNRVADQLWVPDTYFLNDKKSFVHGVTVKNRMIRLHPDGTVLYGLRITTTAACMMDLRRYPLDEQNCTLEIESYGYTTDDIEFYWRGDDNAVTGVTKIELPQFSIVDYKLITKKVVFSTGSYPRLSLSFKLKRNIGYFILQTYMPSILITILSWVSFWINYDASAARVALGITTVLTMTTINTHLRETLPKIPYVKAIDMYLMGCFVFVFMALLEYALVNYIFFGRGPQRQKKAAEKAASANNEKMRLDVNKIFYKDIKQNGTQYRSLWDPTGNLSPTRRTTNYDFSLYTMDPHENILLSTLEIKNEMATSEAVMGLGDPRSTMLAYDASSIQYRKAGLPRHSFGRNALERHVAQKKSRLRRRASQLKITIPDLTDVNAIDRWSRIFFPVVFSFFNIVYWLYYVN
Gamma-aminobutyric acid receptor subunit alpha-1/alpha-2/beta-2/gamma-2, sequence (P18507 whole entry): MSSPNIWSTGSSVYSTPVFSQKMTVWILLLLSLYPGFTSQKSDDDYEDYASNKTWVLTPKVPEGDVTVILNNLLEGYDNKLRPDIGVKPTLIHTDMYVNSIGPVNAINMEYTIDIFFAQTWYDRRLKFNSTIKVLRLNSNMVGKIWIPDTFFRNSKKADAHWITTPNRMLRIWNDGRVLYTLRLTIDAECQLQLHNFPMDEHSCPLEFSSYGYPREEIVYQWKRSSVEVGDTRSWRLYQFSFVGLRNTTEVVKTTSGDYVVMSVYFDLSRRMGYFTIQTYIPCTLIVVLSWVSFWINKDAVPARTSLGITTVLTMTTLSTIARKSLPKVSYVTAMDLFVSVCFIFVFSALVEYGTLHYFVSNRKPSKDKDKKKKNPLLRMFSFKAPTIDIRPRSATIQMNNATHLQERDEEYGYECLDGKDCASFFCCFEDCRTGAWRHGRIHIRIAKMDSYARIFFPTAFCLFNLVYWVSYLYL
Gamma-aminobutyric acid receptor subunit alpha-1/alpha-2/beta-2/gamma-2, sequence (P47869 whole entry): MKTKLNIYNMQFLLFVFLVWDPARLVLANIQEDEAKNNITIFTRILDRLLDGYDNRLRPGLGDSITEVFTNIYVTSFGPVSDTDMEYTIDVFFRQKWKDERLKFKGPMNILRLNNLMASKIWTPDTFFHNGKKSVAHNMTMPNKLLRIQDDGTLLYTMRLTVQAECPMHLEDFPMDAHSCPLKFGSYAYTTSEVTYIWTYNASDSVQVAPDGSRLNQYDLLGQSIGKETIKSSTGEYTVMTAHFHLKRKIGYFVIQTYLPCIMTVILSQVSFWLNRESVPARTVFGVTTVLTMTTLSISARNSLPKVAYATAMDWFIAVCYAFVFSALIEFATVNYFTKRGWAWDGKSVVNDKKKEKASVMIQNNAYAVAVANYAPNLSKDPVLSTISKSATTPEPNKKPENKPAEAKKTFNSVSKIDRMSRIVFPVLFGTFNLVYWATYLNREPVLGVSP

[5] = biological target: T2, Peroxisome proliferator-activated receptor gamma (Homo sapiens, UniProt P37231); format: functional
T2 sequence (P37231 whole entry): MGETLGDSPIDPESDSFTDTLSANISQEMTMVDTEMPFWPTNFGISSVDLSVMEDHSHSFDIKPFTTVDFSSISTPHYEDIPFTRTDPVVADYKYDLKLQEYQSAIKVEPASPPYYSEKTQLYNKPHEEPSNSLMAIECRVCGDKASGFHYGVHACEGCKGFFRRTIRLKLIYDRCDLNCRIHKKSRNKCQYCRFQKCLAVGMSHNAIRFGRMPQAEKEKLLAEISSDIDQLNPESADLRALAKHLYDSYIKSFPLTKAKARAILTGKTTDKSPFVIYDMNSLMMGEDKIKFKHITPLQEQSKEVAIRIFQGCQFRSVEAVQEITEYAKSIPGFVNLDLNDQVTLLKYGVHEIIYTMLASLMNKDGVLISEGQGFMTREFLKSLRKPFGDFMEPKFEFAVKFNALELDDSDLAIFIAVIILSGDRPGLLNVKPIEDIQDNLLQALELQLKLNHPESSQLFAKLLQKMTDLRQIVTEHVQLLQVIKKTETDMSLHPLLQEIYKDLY

Progesterone receptor = biological target: T3, Progesterone receptor (Homo sapiens, UniProt P06401)
T3 sequence (P06401 whole entry): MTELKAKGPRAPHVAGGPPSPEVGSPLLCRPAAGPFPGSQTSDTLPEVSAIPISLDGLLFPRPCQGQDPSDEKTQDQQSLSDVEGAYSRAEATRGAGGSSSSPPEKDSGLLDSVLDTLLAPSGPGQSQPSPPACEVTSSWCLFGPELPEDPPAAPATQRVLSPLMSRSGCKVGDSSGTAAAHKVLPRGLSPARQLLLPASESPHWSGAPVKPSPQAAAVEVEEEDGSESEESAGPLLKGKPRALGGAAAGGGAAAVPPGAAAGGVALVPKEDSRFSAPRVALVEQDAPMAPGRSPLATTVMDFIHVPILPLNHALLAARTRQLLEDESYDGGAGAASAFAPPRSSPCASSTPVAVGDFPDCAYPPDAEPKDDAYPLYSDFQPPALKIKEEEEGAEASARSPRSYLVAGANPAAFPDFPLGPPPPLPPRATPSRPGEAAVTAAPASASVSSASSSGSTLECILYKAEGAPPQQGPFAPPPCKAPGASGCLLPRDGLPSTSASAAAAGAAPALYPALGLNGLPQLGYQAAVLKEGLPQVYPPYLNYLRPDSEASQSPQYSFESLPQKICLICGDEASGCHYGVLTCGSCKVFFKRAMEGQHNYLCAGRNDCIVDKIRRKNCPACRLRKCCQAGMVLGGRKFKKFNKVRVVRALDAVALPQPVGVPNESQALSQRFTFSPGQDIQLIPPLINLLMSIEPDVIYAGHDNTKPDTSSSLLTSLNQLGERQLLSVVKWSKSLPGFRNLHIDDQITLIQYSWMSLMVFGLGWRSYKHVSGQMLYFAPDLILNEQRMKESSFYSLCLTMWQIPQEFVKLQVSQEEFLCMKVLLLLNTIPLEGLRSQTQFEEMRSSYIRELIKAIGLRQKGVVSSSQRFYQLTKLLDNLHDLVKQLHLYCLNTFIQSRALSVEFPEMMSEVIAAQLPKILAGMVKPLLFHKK
Note: assay procedure not described here.

Gamma-aminobutyric acid receptor subunit alpha-1, sequence (P62813 whole entry): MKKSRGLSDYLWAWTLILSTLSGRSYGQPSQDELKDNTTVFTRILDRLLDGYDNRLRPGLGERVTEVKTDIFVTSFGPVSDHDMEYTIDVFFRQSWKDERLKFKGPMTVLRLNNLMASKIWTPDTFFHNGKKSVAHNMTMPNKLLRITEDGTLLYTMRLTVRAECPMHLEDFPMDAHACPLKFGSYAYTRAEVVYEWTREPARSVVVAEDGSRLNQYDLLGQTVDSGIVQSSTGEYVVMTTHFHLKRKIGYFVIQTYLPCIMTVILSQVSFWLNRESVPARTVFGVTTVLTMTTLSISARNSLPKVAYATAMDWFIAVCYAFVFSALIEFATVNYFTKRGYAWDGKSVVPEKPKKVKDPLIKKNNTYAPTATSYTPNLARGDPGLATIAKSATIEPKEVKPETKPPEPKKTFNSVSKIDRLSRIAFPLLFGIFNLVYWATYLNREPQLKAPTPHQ
Glucagon receptor, sequence (P47871 whole entry): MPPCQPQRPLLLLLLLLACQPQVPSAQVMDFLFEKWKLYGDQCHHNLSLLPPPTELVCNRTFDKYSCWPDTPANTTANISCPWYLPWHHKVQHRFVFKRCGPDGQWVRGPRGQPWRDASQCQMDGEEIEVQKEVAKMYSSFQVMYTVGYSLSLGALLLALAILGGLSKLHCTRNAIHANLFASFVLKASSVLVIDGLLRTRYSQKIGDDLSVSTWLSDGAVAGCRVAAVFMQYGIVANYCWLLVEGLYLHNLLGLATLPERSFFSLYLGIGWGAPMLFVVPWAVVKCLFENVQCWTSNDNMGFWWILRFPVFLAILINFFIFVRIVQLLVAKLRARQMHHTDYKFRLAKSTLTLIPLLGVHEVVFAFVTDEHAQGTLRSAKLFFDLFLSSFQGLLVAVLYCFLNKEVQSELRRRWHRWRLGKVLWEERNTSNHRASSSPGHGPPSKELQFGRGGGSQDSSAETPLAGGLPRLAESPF
Beta-3 adrenergic receptor, sequence (P13945 whole entry): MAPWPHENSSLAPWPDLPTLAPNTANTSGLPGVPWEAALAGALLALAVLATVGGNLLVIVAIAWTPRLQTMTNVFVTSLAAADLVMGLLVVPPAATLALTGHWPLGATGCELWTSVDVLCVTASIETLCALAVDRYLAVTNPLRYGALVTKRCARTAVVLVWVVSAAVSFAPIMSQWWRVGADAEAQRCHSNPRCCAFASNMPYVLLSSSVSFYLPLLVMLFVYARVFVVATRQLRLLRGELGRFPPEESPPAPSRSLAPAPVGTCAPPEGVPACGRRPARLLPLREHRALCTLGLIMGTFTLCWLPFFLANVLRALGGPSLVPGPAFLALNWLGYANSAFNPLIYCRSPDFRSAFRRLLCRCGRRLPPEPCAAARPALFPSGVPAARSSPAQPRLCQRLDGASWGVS

Compound	AC50 [1] [µM]	AC50 [4] [µM]	AC50 [5] [µM]	other results
CC1(C)NC(=O)N(c2ccc([N+](=O)[O-])c(C(F)(F)F)c2)C1=O [NILUTAMIDE]	> 30			
CC(C)C[C@H]1C(=O)N2CCC[C@H]2[C@]2(O)O[C@](NC(=O)[C@@H]3C=C4c5cccc6[nH]c(Br)c(c56)C[C@H]4N(C)C3)(C(C)C)C(=O)N12 [BROMOCRIPTINE]	> 30	> 30	> 30	AC50 [2]: 18.9 µM; AC50 (Glucagon receptor): > 30 µM; AC50 [3]: 0.319 µM; AC50 (Progesterone receptor): > 30 µM
CC(C)Nc1ncccn1 [ISAXONINE]	> 30			
CC(=O)Nc1ccc(O)cc1 [ACETAMINOPHEN]		> 30		
COCCCN1CCC(NC(=O)c2cc(Cl)c(N)c3c2OCC3)CC1 [PRUCALOPRIDE]	> 30	> 30	> 30	
C[C@@H](O)[C@H]1C(=O)N2C(C(=O)O)=C(S[C@@H]3CN[C@H](C(=O)N(C)C)C3)[C@H](C)[C@H]12 [MEROPENEM]		> 300	> 300	
CCOC(=O)[C@H](CCc1ccccc1)N[C@@H](C)C(=O)N1[C@H](C(=O)O)C[C@H]2CCCC[C@@H]21 [TRANDOLAPRIL]	> 30			
Nc1nc(NC2CC2)c2ncn([C@H]3C=C[C@@H](CO)C3)c2n1 [ABACAVIR]		> 30		
CCCSc1ccc2nc(NC(=O)OC)[nH]c2c1 [ALBENDAZOLE]				AC50 (Progesterone receptor): > 30 µM
N[C@@H]1[C@H]2CN(c3nc4c(cc3F)c(=O)c(C(=O)O)cn4-c3ccc(F)cc3F)C[C@@H]12 [TROVAFLOXACIN]		> 30	> 30	
N[C@@H](C(=O)N[C@@H]1C(=O)N2C(C(=O)O)=C(Cl)CC[C@H]12)c1ccccc1 [LORACARBEF ANHYDROUS]	> 30			
Cc1cc(C#N)cc(C)c1Oc1nc(Nc2ccc(C#N)cc2)nc(N)c1Br [ETRAVIRINE]	> 30			
COCc1c(C(C)C)nc(C(C)C)c(/C=C/[C@@H](O)C[C@@H](O)CC(=O)O)c1-c1ccc(F)cc1 [CERIVASTATIN]	> 30			
c1cnc(N2CCN(Cc3ccc4c(c3)OCO4)CC2)nc1 [PIRIBEDIL]		> 30	> 30	
CCCN1C[C@H](CSC)C[C@@H]2c3cccc4[nH]cc(c34)C[C@H]21 [PERGOLIDE]		> 30	> 30	AC50 [2]: 20.8 µM; AC50 (Glucagon receptor): > 30 µM; AC50 (Progesterone receptor): > 30 µM
CN(C)CCC=C1c2ccccc2C(C)(C)c2ccccc21		> 30	> 30	
O=C(OCC(O)CO)c1ccccc1Nc1ccnc2cc(Cl)ccc12 (stereo not drawn) [GLAFENINE]		17	> 30	
CN(C)CC(c1ccc(O)cc1)C1(O)CCCCC1 (stereo not drawn) [DESVENLAFAXINE]	> 30			
C[C@H]1CNCCc2ccc(Cl)cc21 [LORCASERIN]		> 30	> 30	
CN(C)CCn1nnnc1SCC1=C(C(=O)O)N2C(=O)[C@@H](NC(=O)Cc3csc(N)n3)[C@H]2SC1 [CEFOTIAM]	> 30			
